15 compounds from PubChem BioAssay (NCI) can be followed below.

Test systems include A498 renal; SNB-75 CNS; CCRF-CEM leukemia; MDA-N; MDA-MB-231 breast; SW-620 colon; RPMI-8226 leukemia; NCI-H226 lung; OVCAR-3 ovarian; SK-OV-3 ovarian.
What all share (test): NCI anticancer screen, dose series, 48 h

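48-hour exposure; five concentrations; linearly interpolated endpoints. At the TGI there is no net growth.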

For the compound `OCCN1CN(c2nc(N3CN(CCO)C3)nc(N3CN(CCO)C3)n2)C1`, the TGI was 96.2 µM in the assay with A498 renal; 57 µM in the assay with SNB-75 CNS; 50.6 µM with CCRF-CEM leukemia; 32.3 µM in the assay on MDA-N; 36.6 µM in the assay with MDA-MB-231 breast; more than 100 µM with SW-620 colon. Also, the TGI with RPMI-8226 leukemia was more than 100 µM; with NCI-H226 lung, 51.2 µM.
Regarding `CCOP(=O)(CC1CC(O)(CNc2cc(Cl)nc(N)n2)C1)OCC` (centres undefined), the TGI with OVCAR-3 ovarian, with A498 renal, in the assay on SNB-75 CNS, in the assay on CCRF-CEM leukemia, with MDA-N and with MDA-MB-231 breast was more than 100 µM in each case. In addition, the TGI with SK-OV-3 ovarian, in the assay on SW-620 colon, with RPMI-8226 leukemia and with NCI-H226 lung was more than 100 µM in each case.
Consider `O=c1[nH]c(=S)c2cc3c(=S)[nH]c(=O)n(CCC(c4ccccc4)(c4ccccc4)c4ccccc4)c3nc2n1CCC(c1ccccc1)(c1ccccc1)c1ccccc1`, for which the TGI was more than 100 µM in the assay with OVCAR-3 ovarian; more than 100 µM in the assay on A498 renal; more than 100 µM with SNB-75 CNS; 27.7 µM in the assay with CCRF-CEM leukemia; more than 100 µM in the assay on MDA-N; more than 100 µM in the assay with MDA-MB-231 breast. In addition, the TGI in the assay on SK-OV-3 ovarian, in the assay on RPMI-8226 leukemia and in the assay on NCI-H226 lung was more than 100 µM in each case.
As for `Cc1c(C)c2c(c(N)c1C#N)C(=O)N(OS(=O)(=O)c1ccccc1)C2=O`, the TGI with OVCAR-3 ovarian was 59.8 µM; in the assay on A498 renal, more than 100 µM; in the assay on SNB-75 CNS, more than 100 µM; with CCRF-CEM leukemia, more than 100 µM; with MDA-N, 80.8 µM; in the assay with MDA-MB-231 breast, more than 100 µM. In addition, the TGI in the assay on SW-620 colon is 47.2 µM; with RPMI-8226 leukemia it was 37.8 µM; in the assay on NCI-H226 lung it was 43.3 µM.
In the case of `O=S(=O)(O)c1ccc2c(N=Nc3ccccc3)c(O)c(S(=O)(=O)O)cc2c1`, the TGI in the assay on OVCAR-3 ovarian, in the assay with A498 renal, with SNB-75 CNS, in the assay with CCRF-CEM leukemia, in the assay with MDA-N and with MDA-MB-231 breast was more than 100 µM throughout. The TGI in the assay with SK-OV-3 ovarian, with SW-620 colon and with NCI-H226 lung was more than 100 µM each time.
Turning to `[N-]=[N+]=NC1=NNC2(C(=O)N1)c1ccccc1-c1ccccc12`, the TGI in the assay on OVCAR-3 ovarian, in the assay with A498 renal, in the assay with SNB-75 CNS, in the assay on CCRF-CEM leukemia, with MDA-N and in the assay with MDA-MB-231 breast was more than 100 µM throughout. The TGI in the assay on SK-OV-3 ovarian, in the assay on SW-620 colon and in the assay on NCI-H226 lung was more than 100 µM in each case.
Regarding `O=C1C=C(N2CCCC2)C(=O)c2c(O)ccc(O)c21`, the TGI in the assay with OVCAR-3 ovarian is more than 10 µM; with A498 renal it was more than 10 µM; in the assay on SNB-75 CNS, more than 10 µM; in the assay with CCRF-CEM leukemia, 5.19 µM; with MDA-N, more than 10 µM; in the assay with MDA-MB-231 breast, more than 10 µM. Also, the TGI with SK-OV-3 ovarian, with SW-620 colon and in the assay with NCI-H226 lung was more than 10 µM in each case.
`Cc1ccc2ccc(=O)oc2c1`: the TGI in the assay on OVCAR-3 ovarian, with A498 renal, with SNB-75 CNS, in the assay on CCRF-CEM leukemia, in the assay with MDA-N and in the assay on MDA-MB-231 breast was more than 100 µM each time. Moreover, the TGI in the assay with SW-620 colon, with RPMI-8226 leukemia and in the assay with NCI-H226 lung was more than 100 µM each time.
Regarding `c1nncn1C12C3C4C5C3C1C5C42` (centres undefined), the TGI with A498 renal, in the assay with SNB-75 CNS, in the assay on CCRF-CEM leukemia, in the assay on MDA-N, with MDA-MB-231 breast and in the assay with SK-OV-3 ovarian was more than 100 µM in each case. Besides, the TGI in the assay on SW-620 colon, with RPMI-8226 leukemia and with NCI-H226 lung was more than 100 µM in each case.
As for `CCn1nc(-c2ccccc2)c2c1N(C)c1ccccc1-n1c(-c3ccccc3)nnc1-2`, the TGI in the assay with A498 renal is 11.2 µM; in the assay with SNB-75 CNS it was 15.7 µM; with CCRF-CEM leukemia it was more than 100 µM; in the assay with MDA-N it was 28.9 µM; in the assay with MDA-MB-231 breast it was 28.6 µM; in the assay with SK-OV-3 ovarian, 38.5 µM. Moreover, the TGI with SW-620 colon is 29.6 µM; with RPMI-8226 leukemia, more than 100 µM; with NCI-H226 lung, 52.7 µM.
For `CCN(CC)c1ccc(/C=c2\nc(-c3ccccc3)n3c2nc2ccccc23)cc1`, the TGI with OVCAR-3 ovarian is more than 100 µM; in the assay with A498 renal it was more than 100 µM; with CCRF-CEM leukemia, 11.7 µM; in the assay on MDA-N it was 24.6 µM; in the assay on MDA-MB-231 breast, more than 100 µM; in the assay with SK-OV-3 ovarian it was more than 100 µM. The TGI was more than 100 µM in the assay with SW-620 colon, 6.3 µM with RPMI-8226 leukemia and 60.5 µM in the assay on NCI-H226 lung.
`OCc1c2c(cc3c1CC1(C3)Cc3cc4c(c(CO)c3C1)CCC4)CCC2`: the TGI in the assay on OVCAR-3 ovarian turned out to be 28.3 µM; in the assay on A498 renal, 30.3 µM; in the assay on CCRF-CEM leukemia, 25.9 µM; with MDA-N, 29.2 µM; in the assay on MDA-MB-231 breast, 32.1 µM; in the assay on SK-OV-3 ovarian, 33 µM. The TGI in the assay with RPMI-8226 leukemia amounted to 47.5 µM; in the assay on NCI-H226 lung, 28.5 µM.
In the case of `Cc1ccc(C(=O)Cc2nc3ncccc3[nH]c2=O)cc1`, the TGI with OVCAR-3 ovarian is more than 100 µM; in the assay with A498 renal it was more than 100 µM; in the assay with CCRF-CEM leukemia it was more than 100 µM; in the assay with MDA-N, more than 100 µM; in the assay on MDA-MB-231 breast, 60.7 µM; with SK-OV-3 ovarian it was 45.4 µM. The TGI with SW-620 colon is more than 100 µM; in the assay on RPMI-8226 leukemia, more than 100 µM; in the assay on NCI-H226 lung, 66.5 µM.
With `COc1ccc(/C=C2\Sc3nnc(C)n3N=C2c2cc(F)c(Cl)cc2Cl)cc1OC`, the TGI with OVCAR-3 ovarian was 16 µM; in the assay on A498 renal, 37.1 µM; with CCRF-CEM leukemia it was more than 100 µM; in the assay on MDA-N, 17.6 µM; with MDA-MB-231 breast, 79.8 µM; with SK-OV-3 ovarian, 76.9 µM. Further, the TGI with SW-620 colon was more than 100 µM; with RPMI-8226 leukemia, 11.1 µM; in the assay on NCI-H226 lung it was 51.8 µM.
In the case of `C/C=C1\CN2CCC34c5ccccc5N(C)C35OCC4(C(=O)OC)C1CC25` (centres undefined), the TGI in the assay on OVCAR-3 ovarian, in the assay on A498 renal, with SNB-75 CNS, in the assay on CCRF-CEM leukemia, in the assay with MDA-N and in the assay with MDA-MB-231 breast was more than 100 µM in each case. For the same compound, the TGI in the assay with SK-OV-3 ovarian, in the assay with SW-620 colon and in the assay on RPMI-8226 leukemia was more than 100 µM throughout.
